What is called EC50 is the concentration giving half of the maximal effect.

The record followed here is patent US8222240B2, “Use of substituted cyclopropane acid derivatives for producing drugs for use in the treatment of metabolic syndrome” (Sanofi-Aventis Deutschland GmbH, priority 2004, dated 2012).

The target of assay [1] is T1, GPCR HM74A (niacin receptor) (Homo sapiens, UniProt Q8TDS4).
T1 construct: expressed in transfected cells; host or cells: HEK293
Nature of the assay: FLIPR in vitro functional assay, intracellular Ca2+ in recombinant HEK293 cells expressing HM74A and hybrid G-protein. Conditions: relative to 1 μM niacin = 100%. The class given is cell-based. As to the method: in vitro functional assays with recombinant cells; function-testing assays were carried out by means of the FLIPR technique (“Fluorescence Imaging Plate Reader”, Molecular Devices Corp.).
For the investigations, cells were seeded into 96-well microtiter plates (60 000 cells/well) and allowed to grow over night. The medium was removed and the cells were incubated in buffer which contained the fluorescent dye Fluo-4. After this loading with dye, the cells were washed, test substance was added, and changes in the intracellular Ca^2+ concentration were measured in the FLIPR apparatus.

The next assay has as its system lipolysis. Nature of the assay: Inhibition of lipolysis on the whole animal (plasma FFA, glycerol, triglycerides after p.o. administration). The class given is in vivo, Wistar rats. More on the design: FFA / Glycerol / Triglyceride: unit not given here. Conditions: for FFA / Glycerol / Triglyceride: 3 mg/kg po, Wistar rats. The procedure: The effect was tested on the whole animal (mouse, rat, hamster or dog), after a fasting period (e.g. of about 16 hours the substance is administered (e.g. p.o., iv., i.p., s.c.) and, with or without additional stimulation of endogenous lipolysis (e.g. by a bolus injection of 2 mg/kg i.p. isoprenaline), the effect of the test substance on lipolysis was determined on the basis of the liberated free fatty acids (FFA), glycerol and triglycerides by obtaining a blood sample (e.g. by retroorbital blood sampling) e.g. 15 min, 30, 60, 120 etc minutes after p.o. administration, and analyzing by standard methods of clinical chemistry (e.g. L. Thomas: Labor und Diagnose, 2nd edition, Medizinische Verlagsgesellschaft, Marburg/L. 1984; ISBN 3-921320-10-9)). The inhibition of lipolysis by the inhibitors is analyzed by comparing with the rate of lipolysis in correspondingly treated control animals.

T1 sequence (Q8TDS4 whole entry): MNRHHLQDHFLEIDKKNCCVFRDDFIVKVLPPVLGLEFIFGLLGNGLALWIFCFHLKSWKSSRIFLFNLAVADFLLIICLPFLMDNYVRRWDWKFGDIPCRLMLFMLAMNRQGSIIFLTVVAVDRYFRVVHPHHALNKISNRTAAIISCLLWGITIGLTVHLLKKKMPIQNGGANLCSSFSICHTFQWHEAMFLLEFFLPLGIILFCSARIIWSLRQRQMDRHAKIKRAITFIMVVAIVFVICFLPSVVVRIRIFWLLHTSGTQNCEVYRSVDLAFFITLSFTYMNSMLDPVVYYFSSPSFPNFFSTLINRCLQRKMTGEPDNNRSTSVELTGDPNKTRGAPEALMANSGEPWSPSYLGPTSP

As to `CC(C)OC(=O)[C@@H]1C[C@H]1C(=O)O` (racemic) [Example 14, 1RS-iso-Propoxycarbonyl-2RS-hydroxycarbonyl-cyclopropane], the EC50 in assay [1] is more than 30000 nM. The same measure, in the same setting: in the case of `C#CCOC(=O)[C@@H]1C[C@H]1C(=O)O` (racemic) [Example 18, 1RS-Propargyloxycarbonyl-2RS-hydroxycarbonyl-cyclopropane] it was 1510 nM; in that of `CC(C)COC(=O)[C@@H]1C[C@H]1C(=O)O` (racemic) [Example 16, 1RS-isobutoxycarbonyl-2RS-hydroxycarbonyl-cyclopropane], more than 30000 nM. Consider `COC(=O)[C@H]1C[C@@H]1C(=O)OC` (relative stereo) [Example 5, Dimethyl trans-1,2-cyclopropanedicarboxylate], for which the FFA in the assay with lipolysis (Time 0) is listed as 0.47; in the assay with lipolysis (Time 15), 0.17; with lipolysis (Time 30), 0.13; with lipolysis (Time 60), 0.11; in the assay with lipolysis (Time 120), 0.25. Further, the Glycerol came out at 87 in the assay with lipolysis (Time 0); 39 with lipolysis (Time 15); 33 with lipolysis (Time 30); 28 in the assay on lipolysis (Time 60); 57 in the assay with lipolysis (Time 120). The Triglyceride in the assay on lipolysis (Time 0) is 0.45; in the assay with lipolysis (Time 15), 0.45; with lipolysis (Time 30), 0.26; in the assay with lipolysis (Time 60) it was 0.15; with lipolysis (Time 120), 0.13. Moreover, the “lipolysis (reduction in free fatty acids (FFA), glycerol and triglycerides)” value with lipolysis (doses of from 0.3 to 30 mg/kg po) was “distinctly reduced”. Moreover, the EC50 in assay [1] is more than 30000 nM. Regarding `COC(=O)[C@H]1C[C@]1(C)C(=O)OC` (relative stereo) [Example 6, Dimethyl 1-methyl-trans-cyclopropane-1,2-dicarboxylate], the EC50 in assay [1] is more than 30000 nM. On the same count and under the same terms, with `CCCCCOC(=O)[C@@H]1C[C@H]1C(=O)O` (racemic) [Example 13, 1RS-Pentoxycarbonyl-2RS-hydroxycarbonyl-cyclopropane] the figure was 1610 nM; with `C=CCOC(=O)[C@@H]1C[C@H]1C(=O)O` (racemic) [Example 17, 1RS-allyloxycarbonyl-2RS-hydroxycarbonyl-cyclopropane], 2830 nM. Take `CC#CCOC(=O)[C@@H]1C[C@H]1C(=O)O` (racemic) [Example 19, 1RS-Butinyloxycarbonyl-2RS-hydroxycarbonyl-cyclopropane]: the EC50 in assay [1] amounted to 1630 nM. Still for that read-out and setting: with `COC(=O)[C@@H]1C[C@H]1C(=O)O` [Example 1, 1R-Methoxycarbonyl-2R-hydroxycarbonyl-cyclopropane] the figure was 70 nM; with `CCCOC(=O)[C@@H]1C[C@H]1C(=O)O` (racemic) [Example 11, 1RS-Propoxycarbonyl-2RS-hydroxycarbonyl-cyclopropane], 2160 nM; with `COC(=O)[C@H]1[C@H](C(=O)O)C1(C)C` (racemic) [Example 9, 1RS-Methoxycarbonyl-2RS-hydroxycarbonyl-3,3-dimethyl-cyclopropane], more than 30000 nM. The same measure, in the same setting: in the case of `CCOC(=O)[C@@H]1C[C@H]1C(=O)OCC` (relative stereo) [Example 8, Diethyl trans-1,2-cyclopropanedicarboxylate] it was more than 30000 nM; in that of `COC(=O)[C@@H]1C[C@H]1C(=O)O` [Example 2, 1R-Methoxycarbonyl-2R-hydroxycarbonyl-cyclopropane], 130 nM.

Consider `CCOC(=O)[C@@H]1C[C@H]1C(=O)O` (racemic) [Example 10, 1RS-Ethoxycarbonyl-2RS-hydroxycarbonyl-cyclopropane], for which the EC50 in assay [1] turned out to be 1480 nM. On to `CC(C)(C)OC(=O)[C@H]1[C@H](C(=O)O)C1(C)C` (racemic) [Example 20, 1RS-tertButoxycarbonyl-2RS-hydroxycarbonyl-3,3-dimethyl-cyclopropane], for which, in assay [1], the EC50 was more than 30000 nM. `CCCCOC(=O)[C@@H]1C[C@H]1C(=O)O` (racemic) [Example 12, 1RS-Butoxycarbonyl-2RS-hydroxycarbonyl-cyclopropane]: the EC50 in assay [1] amounted to 670 nM.

As for `COC(=O)[C@@H]1C[C@H]1C(=O)O` (racemic) [Example 7, 1RS-Methoxycarbonyl-2RS-hydroxycarbonyl-cyclopropane], the EC50 in assay [1] was 630 nM.

Regarding `COC(=O)[C@H]1C[C@H]1C(=O)OC` [Example 4, Dimethyl cis-1,2-cyclopropanedicarboxylate], the EC50 in assay [1] was more than 30000 nM. Still for that read-out and setting: in the case of `O=C(O)[C@@H]1C[C@H]1C(=O)OCC1CCCCC1` (racemic) [Example 15, 1RS-Cyclohexyl-methyloxycarbonyl-2RS-hydroxycarbonyl-cyclopropane] it was more than 30000 nM; in that of `COC(=O)[C@@H]1C[C@H]1C(=O)O` [Example 3, 1R-Methoxycarbonyl-2R-hydroxycarbonyl-cyclopropane], 190 nM.
